“Also recorded” adds a separate entry of the source.
How the values were obtained:
[1] = Metabolic stability in liver microsomes; assay type: in vitro ADME, human, dog, rat, monkey, and mouse; settings: each of the species tested
Procedure: Human, mouse, and dog liver microsomes were purchased from Xenotech, and Sprague-Dawley rat liver microsomes were prepared by Absorption Systems. The reaction mixture comprising 0.5 mg/mL of liver microsomes, 100 mM of potassium phosphate, pH 7.4, 5 mM of magnesium chloride, and 1 uM of test compound was prepared. The test compound was added into the reaction mixture at a final concentration of 1 uM. An aliquot of the reaction mixture (without cofactor) was incubated in shaking water bath at 37 deg. C. for 3 minutes. The control compound, testosterone, was run simultaneously with the test compound in a separate reaction. The reaction was initiated by the addition of cofactor (NADPH), and the mixture was then incubated in a shaking water bath at 37 deg. C. Aliquots (100 μL) were withdrawn at 0, 10, 20, 30, and 60 minutes for the test compound and 0, 10, 30, and 60 minutes for testosterone. […] Test compound samples were analyzed using the Orbitrap high resolution mass spectrometer to quantify the disappearance of parent test compound and detect the appearance of metabolites. […] Half-lives were calculated using GraphPad software, fitting to a single-phase exponential decay equation.
When calculated half-life was longer than the duration of the experiment, the half-life was expressed as >the longest incubation time. The calculated half-life is also listed in parentheses. […]

[2] = tested on: ZR-75-1 (breast ductal carcinoma, Rb-positive); assay: Cellular proliferation assay (CellTiter-Glo), ZR-75-1; assay type: cell-based
Procedure: Cellular proliferation assays were conducted using the following cancer cell lines: MCF7 (breast adenocarcinoma—Rb-positive), ZR-75-1 (breast ductal carcinoma—Rb-positive), H69 (human small cell lung cancer—Rb-negative) cells, or A2058 (human metastatic melanoma cells—Rb-negative). These cells were seeded in Costar (Tewksbury, Mass.) […] 96 well tissue culture treated white walled/clear bottom plates. Cells were treated with the compounds of Table 1 as nine point dose response dilution series from 10 uM to 1 nM. Cells were exposed to compounds and then cell viability was determined after either four (H69) or six (MCF7, ZR75-1, A2058) days as indicated using the CellTiter-Glo® luminescent cell viability assay (CTG; Promega, Madison, Wis., United States of America) following the manufacturer's recommendations. Plates were read on BioTek (Winooski, Vt.) Syngergy2 multi-mode plate reader. The Relative Light Units (RLU) were plotted as a result of variable molar concentration and data was analyzed using Graphpad (LaJolla, Calif.) Prism 5 statistical software to determine the EC50 for each compound.

[3] = tested on: MMTV-c-neu (Rb-positive) tumors; assay: MMTV-c-neu HER2-driven (Rb-positive) luminal breast cancer mouse model; assay type: in vivo, mice
Text: A HER2-driven model (Rb-positive) of breast cancer (Muller W J, Sinn E, Pattengale P K, Wallace R, Leder P. Single-step induction of mammary adenocarcinoma in transgenic mice bearing the activated c-neu oncogene. Cell 1988; 54: 105-15), that expresses c-neu (the mouse ortholog of human HER2) driven by the MMTV promoter was used in the following example. This model was chosen because previous studies in murine (Yu Q, Geng Y, Sicinski P. Specific protection against breast cancers by cyclin D1 ablation. Nature 2001; 411: 1017-21; Landis M W, Pawlyk B S, Li T, Sicinski P, Hinds P W. Cyclin D1-dependent kinase activity in murine development and mammary tumorigenesis. Cancer Cell 2006; 9: 13-22; Reddy H K, Mettus R V, Rane S G, Grana X, Litvin J, Reddy E P. Cyclin-dependent kinase 4 expression is essential for neu-induced breast tumorigenesis. Cancer Res 2005; 65: 10174-8; Yu Q, Sicinska E, Geng Y, Ahnstrom M, Zagozdzon A, Kong Y, et al. Requirement for CDK4 kinase function in breast cancer. Cancer Cell 2006; 9: 23-32.) and human HER2-positive breast cancer (An H X, Beckmann M W, Reifenberger G, Bender H G, Niederacher D. Gene amplification and overexpression of CDK4 in sporadic breast carcinomas is associated with high tumor cell proliferation. Am J Pathol 1999; 154: 113-8; Samady L, Dennis J, Budhram-Mahadeo V, Latchman DS. Activation of CDK4 gene expression in human breast cancer cells by the Brn-3b POU family transcription factor. Cancer Biol Ther 2004; 3: 317-23; Takano Y, Takenaka H, Kato Y, Masuda M, Mikami T, Saegusa M, et al. Cyclin D1 overexpression in invasive breast cancers: correlation with cyclin-dependent kinase 4 and oestrogen receptor overexpression, and lack of correlation with mitotic activity.
MMTV-neu mice were generated and observed post-lactation, with tumors observed with a median latency of approximately 25 weeks. Mice were enrolled in therapy studies when tumors reached a standard size (50-60 mm3) that permitted easy serial assessment. […] Tumor volumes were calculated by the formula, Volume=[(width)^2×length]/2. Tumor-bearing mice were euthanized at the indicated times due to predefined morbidity, tumor ulceration, or a tumor size of more than 1.5 cm in diameter.
Tumors were serially assessed weekly using caliper measurements. Therapeutic intervention began once tumors reached 40-64 mm^3. Tumor volume was calculated using the formula […]. All three compounds were administered orally via medicated diets (100 mg/kg/d). Medicated diets were administered for 28 consecutive days and then stopped. RECIST criteria were used to assess objective response rates.

[4] = tested on: A2058 cells (CDK4/6-independent, Rb-negative); assay: Cell cycle arrest (propidium iodide flow cytometry), A2058; assay type: cell-based; settings: 300 nM, 24 hours
Text: To test the ability of CDK4/6 inhibitors to induce a clean G1-arrest, a cell based screening method was used consisting of two CDK4/6-dependent cell lines (tHS68 and WM2664; Rb-positive) and one CDK4/6-independent (A2058; Rb-negative) cell line. […] At the conclusion of the experiment, cells were harvested, fixed, and stained with propidium iodide (a DNA intercalator), which fluoresces strongly red (emission maximum 637 nm) when excited by 488 nm light. Samples were run on Dako Cyan flow cytometer and >10,000 events were collected for each sample. Data were analyzed using FlowJo 2.2 software developed by TreeStar, Inc.

Q: For `CN1CCN(c2ccc(Nc3ncc4cc5n(c4n3)C3(CCCCC3)CNC5=O)nc2)CC1` [T], which “half-life in liver microsomes compared with PD0332991” value [1] is on record?
A: shorter in each species

Q: And the “activity against ZR75-1 cells compared with PD0332991 (FIG. 25)” value [2]?
A: more potent activity against ZR75-1 cells than PD0332991

Q: And the “inhibition of cellular proliferation of ZR75-1 cells (FIGS. 25-28)” value [2]?
A: significant inhibition of cellular proliferation

Q: And the “tumor volume during a 28 day course of therapy” value ([3]; 100 mg/kg/d in chow, listed as Compound T)?
A: marked reduction in tumor volume

Q: What about the “tumor volume during a 28 day course of therapy” value ([3]; 100 mg/kg/d in chow, listed as compound T) of the same compound?
A: marked decrease in tumor volume

Q: What about the objective response rate ([3]; 100 mg/kg/day medicated diet, 28 days, RECIST criteria) of the same compound?
A: 100%

Q: What about the “tumor volume during a 28 day course of therapy” value ([3]; 150 mg/kg/d in chow) of the same compound?
A: marked reduction in tumor volume

Q: And the “cell cycle distribution after treatment” value [4]?
A: no effect; also recorded: does not cause a loss of the S-phase peak
